Data as given in ChEMBL document CHEMBL1142750, “Gastric cytoprotective activity of ilicic aldehyde: structure-activity relationships” (2005).

Assays:
Type in all cases: functional
Rattus norvegicus [1] = assay: Gastric cytoprotective effect as ulcerative index was calculated in male wistar rat after 100 mg/kg dosage
Rattus norvegicus [2] = assay: Percent inhibition ethanol induced necrotic damage of gastric mucosa in male wistar rat after dosage; Dose range 25-100 mg/kg
Rattus norvegicus [3] = assay: Gastric cytoprotective effect as ulcerative index was calculated in male wistar rat after 20 mg/kg dosage
Rattus norvegicus [4] = assay: Percent inhibition ethanol induced necrotic damage of gastric mucosa in male wistar rat after 1 hr of contact with synthetic gastric juice; Dose range 25?100 mg/kg
Rattus norvegicus [5] = assay: Gastric cytoprotective effect as ulcerative index was calculated in male wistar rat at 100 mg/kg dose after 1 hr of contact with synthetic gastric juice
Rattus norvegicus [6] = assay: Percent inhibition ethanol induced necrotic damage of gastric mucosa in male wistar rat after 2 hr of contact with synthetic gastric juice; Dose range 25?100 mg/kg
Rattus norvegicus [7] = assay: Gastric cytoprotective effect as ulcerative index was calculated in male wistar rat at 100 mg/kg dose after 2 hr of contact with synthetic gastric juice

Structure (SMILES) | Ulcerative index (Rattus norvegicus [1]) | Inhibition of damage (Rattus norvegicus [2]) | other results
C=C1CCC[C@]2(C)CC[C@@H](C(=C)C=O)CC12 (some centres not stated) | 3.75 | 23% | 
C=C1C(=O)O[C@H]2C1CCC(C)=C1C(=O)C=C(C)[C@@H]12 (some centres not stated) | 0.16 | 97% | 
C=C(CO)[C@@H]1CC[C@@]2(C)CCC[C@@](C)(O)C2C1 (some centres not stated) | 4.8 | 1% | 
C=C(C(=O)O)[C@@H]1CC[C@@]2(C)CCC[C@@](C)(O)C2C1 (some centres not stated) | 4.62 | 5% | 
C=C(C(=O)OC)[C@@H]1CCC2=CC(=O)C[C@H](C)[C@@]2(C)C1 [TESSARIC ACID METHYL ESTER] | 4.62 | 5% | 
C=C1C(=O)O[C@]23C[C@H]1CC[C@@]2(C)CCCC3=C | 3.37 | 30% | 
C=C1C(=O)O[C@]23C[C@H]1CC[C@@]2(C)CCC[C@H]3C | 2.5 | 48% | 
C=C(C=O)[C@@H]1CC[C@@]2(C)CCCC(C)=C2C1 | 4.62 | 5% | 
C=C(C(=O)O)[C@@H]1CCC2=CC(=O)C[C@H](C)[C@@]2(C)C1 [TESSARIC ACID] | 4.62 | 5% | 
C=C(C(=O)O)[C@@H]1CCC2=CC=C[C@H](C)[C@@]2(C)C1 |  | 23% | Ulcerative index (Rattus norvegicus [3]): 3.7
C=C(C(=O)O)[C@@H]1CC[C@@]2(C)CCCC(C)=C2C1 | 4 | 17% | 
C=C(C=O)[C@@H]1CC[C@@]2(C)CCC[C@@](C)(O[Si](C)(C)C)C2C1 (some centres not stated) | 2.5 | 48% | 
C=C(C=O)[C@@H]1CC[C@@]2(C)CCC[C@@](C)(O)C2C1 (some centres not stated) | 0.2 | 96% | 
COc1ccc2[nH]c([S+]([O-])Cc3ncc(C)c(OC)c3C)nc2c1 (configuration not stated) [OMEPRAZOLE] |  | 38% | Ulcerative index (Rattus norvegicus [3]): 3
C=C(C=O)[C@@H]1CC[C@@]2(C)CCC[C@@](C)(OC(=O)C(F)(F)F)C2C1 (some centres not stated) |  |  | Inhibition of damage (Rattus norvegicus [4]): 86%; Ulcerative index (Rattus norvegicus [5]): 0.66; Inhibition of damage (Rattus norvegicus [6]): 96%; Ulcerative index (Rattus norvegicus [7]): 0.16
